Key:
[1] = Binding affinity to 5'-CCCGGGCC-3' DNA hairpin assessed as change in fluorescence intensity at 1 uM after 45 mins by fluorescence quenching analysis relative to control
[2] = Binding affinity to 5'-GCCGCGGG-3' DNA hairpin assessed as change in fluorescence intensity at 1 uM after 45 mins by fluorescence quenching analysis relative to control
[3] = Binding affinity to 5'-CGCGGCGC-3' DNA hairpin assessed as change in fluorescence intensity at 1 uM after 45 mins by fluorescence quenching analysis relative to control
[4] = Binding affinity to 5'-CGGCGGGC-3' DNA hairpin assessed as change in fluorescence intensity at 1 uM after 45 mins by fluorescence quenching analysis relative to control
[5] = Binding affinity to 5'-GCGCCGGG-3' DNA hairpin assessed as change in fluorescence intensity at 1 uM after 45 mins by fluorescence quenching analysis relative to control
[6] = Binding affinity to 5'-GCCGGGCG-3' DNA hairpin assessed as change in fluorescence intensity at 1 uM after 45 mins by fluorescence quenching analysis relative to control
[7] = Binding affinity to 5'-GGGGGCGG-3' DNA hairpin assessed as change in fluorescence intensity at 1 uM after 45 mins by fluorescence quenching analysis relative to control
[8] = Binding affinity to 5'-CGGCGCGC-3' DNA hairpin assessed as change in fluorescence intensity at 1 uM after 45 mins by fluorescence quenching analysis relative to control
[9] = Binding affinity to 5'-CCCCCGCG-3' DNA hairpin assessed as change in fluorescence intensity at 1 uM after 45 mins by fluorescence quenching analysis relative to control
[10] = Binding affinity to 5'-CCCGCCCC-3' DNA hairpin assessed as change in fluorescence intensity at 1 uM after 45 mins by fluorescence quenching analysis relative to control
[11] = Binding affinity to 5'-GGCGCGGG-3' DNA hairpin assessed as change in fluorescence intensity at 1 uM after 45 mins by fluorescence quenching analysis relative to control
[12] = Binding affinity to 5'-GGGGGCCC-3' DNA hairpin assessed as change in fluorescence intensity at 1 uM after 45 mins by fluorescence quenching analysis relative to control
[13] = Binding affinity to 5'-CCGGCCCC-3' DNA hairpin assessed as change in fluorescence intensity at 1 uM after 45 mins by fluorescence quenching analysis relative to control
[14] = Binding affinity to 5'-CGCGCGCC-3' DNA hairpin assessed as change in fluorescence intensity at 1 uM after 45 mins by fluorescence quenching analysis relative to control
[15] = Binding affinity to 5'-GGGCCCCC-3' DNA hairpin assessed as change in fluorescence intensity at 1 uM after 45 mins by fluorescence quenching analysis relative to control
[16] = Binding affinity to 5'-CCGGCCCG-3' DNA hairpin assessed as change in fluorescence intensity at 1 uM after 45 mins by fluorescence quenching analysis relative to control
[17] = Binding affinity to 5'-CCGCGGCC-3' DNA hairpin assessed as change in fluorescence intensity at 1 uM after 45 mins by fluorescence quenching analysis relative to control
[18] = Binding affinity to 5'-CGCGCGGC-3' DNA hairpin assessed as change in fluorescence intensity at 1 uM after 45 mins by fluorescence quenching analysis relative to control
[19] = Binding affinity to 5'-CCCGCGGG-3' DNA hairpin assessed as change in fluorescence intensity at 1 uM after 45 mins by fluorescence quenching analysis relative to control
[20] = Binding affinity to 5'-GGCGGGCG-3' DNA hairpin assessed as change in fluorescence intensity at 1 uM after 45 mins by fluorescence quenching analysis relative to control
[21] = Binding affinity to 5'-CCCGGCCC-3' DNA hairpin assessed as change in fluorescence intensity at 1 uM after 45 mins by fluorescence quenching analysis relative to control
[22] = Binding affinity to 5'-GCCCGCGC-3' DNA hairpin assessed as change in fluorescence intensity at 1 uM after 45 mins by fluorescence quenching analysis relative to control
[23] = Binding affinity to 5'-CGGGCCGC-3' DNA hairpin assessed as change in fluorescence intensity at 1 uM after 45 mins by fluorescence quenching analysis relative to control
[24] = Binding affinity to 5'-CGGCCCGC-3' DNA hairpin assessed as change in fluorescence intensity at 1 uM after 45 mins by fluorescence quenching analysis relative to control
[25] = Binding affinity to 5'-CCGGCCGC-3' DNA hairpin assessed as change in fluorescence intensity at 1 uM after 45 mins by fluorescence quenching analysis relative to control
[26] = Binding affinity to 5'-GCCCGGGG-3' DNA hairpin assessed as change in fluorescence intensity at 1 uM after 45 mins by fluorescence quenching analysis relative to control
[27] = Binding affinity to 5'-CCCGGCGC-3' DNA hairpin assessed as change in fluorescence intensity at 1 uM after 45 mins by fluorescence quenching analysis relative to control
[28] = Binding affinity to 5'-CGCCCCGC-3' DNA hairpin assessed as change in fluorescence intensity at 1 uM after 45 mins by fluorescence quenching analysis relative to control
[29] = Binding affinity to 5'-CCCCGGGG-3' DNA hairpin assessed as change in fluorescence intensity at 1 uM after 45 mins by fluorescence quenching analysis relative to control
[30] = Binding affinity to 5'-GCCCGGCG-3' DNA hairpin assessed as change in fluorescence intensity at 1 uM after 45 mins by fluorescence quenching analysis relative to control
[31] = Binding affinity to 5'-GGGGCCGC-3' DNA hairpin assessed as change in fluorescence intensity at 1 uM after 45 mins by fluorescence quenching analysis relative to control
[32] = Binding affinity to 5'-CCCGGGGC-3' DNA hairpin assessed as change in fluorescence intensity at 1 uM after 45 mins by fluorescence quenching analysis relative to control
[33] = Binding affinity to 5'-GCCGCGCG-3' DNA hairpin assessed as change in fluorescence intensity at 1 uM after 45 mins by fluorescence quenching analysis relative to control
[34] = Binding affinity to 5'-CGCGGGCG-3' DNA hairpin assessed as change in fluorescence intensity at 1 uM after 45 mins by fluorescence quenching analysis relative to control
[35] = Binding affinity to 5'-CGCGCGGG-3' DNA hairpin assessed as change in fluorescence intensity at 1 uM after 45 mins by fluorescence quenching analysis relative to control
[36] = Binding affinity to 5'-GGCCGCCC-3' DNA hairpin assessed as change in fluorescence intensity at 1 uM after 45 mins by fluorescence quenching analysis relative to control

Compound NCC1O[C@H](O[C@H]2[C@@H](O)[C@H](O[C@@H]3[C@@H](O)[C@H](N)C[C@H](N)[C@H]3O[C@H]3O[C@H](CN)[C@@H](O)[C@H](O)[C@H]3N)O[C@@H]2CSCCNC(=O)CCSCC(=O)Nc2ccc(-c3c4ccc(=O)cc-4oc4cc(O)ccc34)c(C(=O)O)c2)[C@H](N)[C@@H](O)[C@@H]1O (stereo partly specified) has an Activity [1] of 40.2%, an Activity [2] of 52.7% and an Activity [3] of 52.5%. For the same compound, the Activity [4] was 43.1%, the Activity [5] was 46.9% and the Activity [6] was 49.7%. It also gave an Activity [7] of 38.3%, an Activity [8] of 46.2% and an Activity [9] of 35.4%. It also gave an Activity [10] of 46.7%, an Activity [11] of 46.2% and an Activity [12] of 34.4%. The Activity [13] was 39.4%, the Activity [14] was 52.2% and the Activity [15] was 15%. The Activity [16] was 48%, the Activity [17] was 50.6% and the Activity [18] was 43.8%. The Activity [19] was 40.3%, the Activity [20] was 48.3% and the Activity [21] was 40.8%. For the same compound, the Activity [22] was 40.4%, the Activity [23] was 52.5% and the Activity [24] was 39.9%. For the same compound, the Activity [25] was 57.7%, the Activity [26] was 38.8% and the Activity [27] was 44.8%. For the same compound, the Activity [28] was 38%, the Activity [29] was 32.7% and the Activity [30] was 51.9%. It also gave an Activity [31] of 41.3%, an Activity [32] of 33.4% and an Activity [33] of 58.2%. The Activity [34] was 47.5%, the Activity [35] was 49.9% and the Activity [36] was 37.9%.

From ChEMBL document CHEMBL4000244, “Probing A-form DNA: A fluorescent aminosugar probe and dual recognition by anthraquinone-neomycin conjugates” (Bioorg Med Chem, 2017)
